The source of these data is US20240383910A1, “SMALL MOLECULE BTK DEGRADERS AND METHODS OF USE THEREOF” (Baylor College of Medicine, priority 2023, published 2024).

SMILES strings stand for the structures. Bounds are passed on as bounds.

The target in one data set is T1, IKZF1 (Homo sapiens, UniProt Q13422+Q96SW2).
T1 construct: host or cells: Mino
Put plainly: Western blotting for IKZF1 in Mino cells. The data set is classed as cell-based. The settings on record: 24 h, Western blot, read-out: IKZF1-WB Endpoint DC50. The method, then:
(§1) Panel a. […] Panel b. […] Panel c. […] Panel d-e. […] Panel g.
After treatment, whole cell lysates for immunoblotting were prepared by pelleting Mino cells at 4° C. and 200×g for 5 minutes. […] Imaging was performed using the ECL Prime chemiluminescent Western blot detection reagents (Kindle Biosciences, Cat. No. R1100) by visualization of the blots with an Imager (Kindle Biosciences, Cat. No. D1001). All Western blots were subsequently processed and quantified with Imager software ImageJ and protein level was normalized to the B-actin loading controls.

The next data set deals with T2, CSK (Homo sapiens, UniProt P41240).
T2 construct: host or cells: Mino
Put plainly: TMT-based quantitative proteomics in Mino cells, CSK. Format: cell-based. The settings on record: 200 nM, 4 h. As to the method:
as §1
(§2) Two million of Mino cells were treated with DMSO or 200 nM of PS-2 for 4 hours in biological triplicates and cells were harvested by centrifugation (200×g, 4° C., 5 min). Lysis buffer (100 mM Triethylammonium bicarbonate (TEAB, Thermo Fisher Scientific, Cat. No. 90114), 2% SDS) was added to the cell pellets and homogenized with a microtip sonicator (Branson) to achieve a cell lysate with a protein concentration of ˜2 mg mL^−1. Protein concentration was determined using BCA assay (Pierce, Cat. No. 23225) and normalized to 1 mg mL^−1. One hundred μg of protein for each sample were reduced and alkylated with 10 mM Tris(2-carboxyethyl) phosphine hydrochloride (TCEP, Sigma, Cat. No. C4706) and 17 mM iodoacetamide (IAA, Sigma, Cat. No. 16125-5G), followed by digestion with trypsin (1:20, enzyme: protein, Thermo Fisher Scientific, Cat. No. 90058) for 16 h shaking at 37° C. […]
(§3) Next, tandem mass tagging (TMT)-based quantitative proteomic profiling was performed to evaluate the degradation specificity of PS-2. […] Quantitative proteomics employing TMT chemical labeling coupled with LC/MS/MS enabled the detection of >2,500 unique proteins without fractionation (FIG. 4f). […]

For the next data set, the system named is Mino cells. Put plainly: cells. The settings on record: Homo sapiens, 72 h, read-out: IC50, cell growth inhibition / cell viability, Mino cells, 72 h.
The next data set deals with T3, IKZF3 (Homo sapiens, UniProt Q96SW2+Q9UKT9).
T3 construct: host or cells: Mino
Put plainly: TMT-based quantitative proteomics in Mino cells, IKZF3. The data set is classed as cell-based. To be noted: 200 nM, 4 h. As to the method: as §1, §2, §3

Data set [1] is described as follows: Mouse S9 metabolic stability assay. The settings on record: co-incubated with mouse liver S9 enzymes, LC-MS; read-out: t1/2 in mouse liver S9. Format: in vitro ADME. The method, then: To verify the metabolic stability of PS-2, PS-2 was co-incubated with mouse liver S9 enzymes and LC-MS was used to test the remaining amount of PS-2 compound. DD-03-171 was used as a control (FIG. 11).

The next data set has as its target T4, His-BTK (Homo sapiens, UniProt Q06187).
T4 construct: purchased SignalChem B10-10H-10
Put plainly: TR-FRET competition binding assay with BTK-BODIPY tracer. The settings on record: TRFRET assay, up to 100 μM. As to the method:
Panels a-b. […] Panel c. […] Panel d. […] Panel e. […] Panel f.
Time-resolved fluorescence resonance energy transfer (TR-FRET) assay was carried out to evaluate the binding of indicated compounds and BTK by competition with a BODIPY-FL labeled BTK tracer (See FIG. 1, BTK TR-FRET tracer). The assay was performed in 20 μL assay buffer (50 mM Tris, pH7.5, 0.1% Triton X-100, 0.01% BSA, and 1 mM DTT) with 0.3 nM Tb-anti-His (Cisbio, Cat. No. 61HI2TLA), 2 nM His-BTK (SignalChem, Cat. No. […] Unless specified otherwise, all assays were performed in triplicates. The assay mixtures were incubated at room temperature in the dark for 120 min, unless specified otherwise, and the signals were collected using a BioTek Synergy H1 microplate reader to measure the fluorescence emission ratio ([…]) of each well, using a 340-nm excitation filter, a 100-μs delay, and a 200-μs integration time. Raw data from the plate reader were used directly for analysis. The curve-fitting software GraphPad Prism 9 was used to generate graphs and curves and to determine IC50 values.
To measure the binding affinities between PROTACs and BTK, a time-resolved fluorescence resonance energy transfer (TR-FRET) competition binding assay was developed. A BTK tracer was synthesized by conjugating an ibrutinib-based reversible noncovalent binder with the BODIPY-FL dye (FIG. 1). […] In the presence of the BTK tracer, competition assays were performed to measure the binding affinities between BTK and its inhibitors and PROTACs. […] The very weak BTK binding affinities for PS-RC-1, PS-RC-2, PS-RC-3 and PS-RC-4 explain their minimal BTK degradation effects in cells and further support that the observed growth inhibitory effect of PS-RC-1 in Mino cells is unrelated to the BTK pathway.
Background: In TR-FRET formats the signal depends on donor and acceptor labels being close together.

The next data set has as its target T5, BTK (Mus musculus, UniProt P35991).
T5 construct: host or cells: A20
Put plainly: Western blotting for BTK in A20 cells. The settings on record: A20 cells, 40, 200 and 1000 nM, 24 h, Western blot. The data set is classed as cell-based. As to the method:
CC-220 is a IKZF1/3 degrader developed by Celgene and used for comparison.
In contrast, PS-3, whose warhead is further reduced compared with PS-2, loses its ability to function as either a BTK degrader or a potent IKZF1/3 molecular glue. To confirm this observation, BTK degradation induced by PS-1, PS-2, and PS-3 was tested in both a human B lymphocyte cell line Ramos and mouse BALB/c B cell lymphoma line A20, with DD-03-171 from the Gray group as a positive control (FIG. 5).

T1 sequence (Q13422 whole entry): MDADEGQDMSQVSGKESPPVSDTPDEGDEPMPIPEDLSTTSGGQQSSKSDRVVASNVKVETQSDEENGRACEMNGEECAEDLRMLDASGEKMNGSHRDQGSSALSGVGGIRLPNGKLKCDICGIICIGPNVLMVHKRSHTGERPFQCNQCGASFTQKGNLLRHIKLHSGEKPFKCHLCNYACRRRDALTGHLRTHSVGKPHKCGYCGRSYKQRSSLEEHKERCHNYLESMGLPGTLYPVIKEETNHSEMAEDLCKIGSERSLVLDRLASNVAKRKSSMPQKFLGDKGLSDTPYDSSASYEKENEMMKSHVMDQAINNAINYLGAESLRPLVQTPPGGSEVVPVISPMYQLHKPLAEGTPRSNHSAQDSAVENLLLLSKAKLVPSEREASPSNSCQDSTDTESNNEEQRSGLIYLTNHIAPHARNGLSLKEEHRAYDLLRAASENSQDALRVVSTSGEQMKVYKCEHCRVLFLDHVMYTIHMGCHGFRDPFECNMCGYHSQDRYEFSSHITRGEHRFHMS
T1 sequence (Q96SW2 whole entry): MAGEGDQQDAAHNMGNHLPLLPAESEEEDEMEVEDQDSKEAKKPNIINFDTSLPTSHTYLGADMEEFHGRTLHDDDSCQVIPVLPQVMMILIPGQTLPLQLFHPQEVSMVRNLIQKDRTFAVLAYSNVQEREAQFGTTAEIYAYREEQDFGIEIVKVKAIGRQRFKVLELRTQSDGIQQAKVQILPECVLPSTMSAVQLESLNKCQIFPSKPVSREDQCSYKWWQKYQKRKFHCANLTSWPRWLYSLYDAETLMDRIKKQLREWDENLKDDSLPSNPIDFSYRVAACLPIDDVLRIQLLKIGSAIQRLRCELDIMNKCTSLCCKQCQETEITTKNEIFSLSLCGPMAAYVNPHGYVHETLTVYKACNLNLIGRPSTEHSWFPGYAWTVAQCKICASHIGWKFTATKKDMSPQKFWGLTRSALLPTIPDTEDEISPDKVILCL
T1 sequence (Q16531 whole entry partner): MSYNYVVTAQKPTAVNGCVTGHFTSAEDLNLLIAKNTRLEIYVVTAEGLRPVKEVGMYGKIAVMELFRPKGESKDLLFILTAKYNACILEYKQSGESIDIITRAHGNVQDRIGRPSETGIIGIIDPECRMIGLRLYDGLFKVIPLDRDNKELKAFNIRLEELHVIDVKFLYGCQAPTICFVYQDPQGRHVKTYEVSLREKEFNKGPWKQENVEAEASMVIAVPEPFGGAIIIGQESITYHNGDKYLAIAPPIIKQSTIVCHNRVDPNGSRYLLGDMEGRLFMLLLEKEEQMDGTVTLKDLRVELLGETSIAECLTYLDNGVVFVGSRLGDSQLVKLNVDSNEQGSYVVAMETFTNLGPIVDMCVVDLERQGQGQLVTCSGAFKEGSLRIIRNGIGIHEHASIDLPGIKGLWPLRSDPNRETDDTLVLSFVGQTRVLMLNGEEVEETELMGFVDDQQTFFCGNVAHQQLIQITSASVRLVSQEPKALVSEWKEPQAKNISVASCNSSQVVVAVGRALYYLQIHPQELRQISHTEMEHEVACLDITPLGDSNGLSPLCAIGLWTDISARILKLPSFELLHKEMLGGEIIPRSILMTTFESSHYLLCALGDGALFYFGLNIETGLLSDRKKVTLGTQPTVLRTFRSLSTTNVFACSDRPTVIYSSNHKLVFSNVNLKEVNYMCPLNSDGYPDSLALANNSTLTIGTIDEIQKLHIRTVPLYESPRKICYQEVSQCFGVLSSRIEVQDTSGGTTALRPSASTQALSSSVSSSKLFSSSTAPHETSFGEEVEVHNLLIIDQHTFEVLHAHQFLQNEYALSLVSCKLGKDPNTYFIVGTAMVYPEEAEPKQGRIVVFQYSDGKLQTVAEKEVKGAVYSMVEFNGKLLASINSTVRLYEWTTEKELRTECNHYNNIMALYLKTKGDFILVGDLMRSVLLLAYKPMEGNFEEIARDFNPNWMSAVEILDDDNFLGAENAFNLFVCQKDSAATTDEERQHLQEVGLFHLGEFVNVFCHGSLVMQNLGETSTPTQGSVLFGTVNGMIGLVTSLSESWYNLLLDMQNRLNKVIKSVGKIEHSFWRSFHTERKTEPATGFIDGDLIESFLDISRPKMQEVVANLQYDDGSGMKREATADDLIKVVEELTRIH
T4 sequence (Q06187 whole entry): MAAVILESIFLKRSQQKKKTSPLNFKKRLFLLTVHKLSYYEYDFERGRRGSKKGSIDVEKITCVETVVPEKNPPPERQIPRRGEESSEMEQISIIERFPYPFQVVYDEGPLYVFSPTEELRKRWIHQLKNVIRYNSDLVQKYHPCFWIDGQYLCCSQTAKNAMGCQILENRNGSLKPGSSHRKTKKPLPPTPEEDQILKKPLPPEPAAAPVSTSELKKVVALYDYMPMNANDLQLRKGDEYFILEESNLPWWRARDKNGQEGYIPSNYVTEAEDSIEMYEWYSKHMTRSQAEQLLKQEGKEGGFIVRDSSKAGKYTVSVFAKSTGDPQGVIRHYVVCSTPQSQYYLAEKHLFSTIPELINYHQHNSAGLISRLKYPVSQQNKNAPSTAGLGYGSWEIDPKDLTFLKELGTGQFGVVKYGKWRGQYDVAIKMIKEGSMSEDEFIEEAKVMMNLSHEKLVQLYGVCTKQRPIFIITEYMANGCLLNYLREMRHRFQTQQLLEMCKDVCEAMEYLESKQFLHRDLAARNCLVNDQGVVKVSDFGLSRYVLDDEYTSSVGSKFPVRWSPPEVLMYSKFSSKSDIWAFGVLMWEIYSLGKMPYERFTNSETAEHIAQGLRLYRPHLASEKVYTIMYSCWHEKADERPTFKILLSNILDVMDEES
T3 sequence (Q9UKT9 whole entry): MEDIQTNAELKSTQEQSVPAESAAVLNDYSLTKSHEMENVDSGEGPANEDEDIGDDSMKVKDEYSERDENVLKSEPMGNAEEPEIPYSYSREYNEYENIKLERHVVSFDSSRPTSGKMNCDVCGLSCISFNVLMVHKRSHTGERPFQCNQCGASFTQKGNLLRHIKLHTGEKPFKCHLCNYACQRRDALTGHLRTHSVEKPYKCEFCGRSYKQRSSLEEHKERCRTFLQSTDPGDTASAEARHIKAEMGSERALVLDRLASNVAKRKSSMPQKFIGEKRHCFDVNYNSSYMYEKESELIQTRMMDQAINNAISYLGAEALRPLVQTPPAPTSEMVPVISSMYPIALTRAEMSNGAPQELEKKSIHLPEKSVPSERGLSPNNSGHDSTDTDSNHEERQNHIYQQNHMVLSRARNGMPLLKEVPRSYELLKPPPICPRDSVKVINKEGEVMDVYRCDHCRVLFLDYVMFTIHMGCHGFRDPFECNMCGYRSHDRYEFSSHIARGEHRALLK
T3 sequence (Q96SW2 whole entry): as the sequence (Q96SW2 whole entry) above
T3 sequence (Q16531 whole entry partner): as the sequence (Q16531 whole entry partner) above
T2 sequence (P41240 whole entry): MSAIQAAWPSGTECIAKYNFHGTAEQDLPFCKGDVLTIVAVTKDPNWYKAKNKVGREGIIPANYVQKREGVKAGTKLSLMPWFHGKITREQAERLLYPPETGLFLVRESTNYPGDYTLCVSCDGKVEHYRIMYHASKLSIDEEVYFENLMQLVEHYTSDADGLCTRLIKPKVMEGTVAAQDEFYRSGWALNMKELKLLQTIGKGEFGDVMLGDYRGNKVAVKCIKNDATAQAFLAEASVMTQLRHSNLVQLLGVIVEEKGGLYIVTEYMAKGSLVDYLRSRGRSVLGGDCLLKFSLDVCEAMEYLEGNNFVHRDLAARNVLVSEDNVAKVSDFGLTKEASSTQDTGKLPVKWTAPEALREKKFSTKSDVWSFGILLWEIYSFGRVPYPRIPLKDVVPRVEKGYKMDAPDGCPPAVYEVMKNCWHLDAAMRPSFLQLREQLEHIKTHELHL
T5 sequence (P35991 whole entry): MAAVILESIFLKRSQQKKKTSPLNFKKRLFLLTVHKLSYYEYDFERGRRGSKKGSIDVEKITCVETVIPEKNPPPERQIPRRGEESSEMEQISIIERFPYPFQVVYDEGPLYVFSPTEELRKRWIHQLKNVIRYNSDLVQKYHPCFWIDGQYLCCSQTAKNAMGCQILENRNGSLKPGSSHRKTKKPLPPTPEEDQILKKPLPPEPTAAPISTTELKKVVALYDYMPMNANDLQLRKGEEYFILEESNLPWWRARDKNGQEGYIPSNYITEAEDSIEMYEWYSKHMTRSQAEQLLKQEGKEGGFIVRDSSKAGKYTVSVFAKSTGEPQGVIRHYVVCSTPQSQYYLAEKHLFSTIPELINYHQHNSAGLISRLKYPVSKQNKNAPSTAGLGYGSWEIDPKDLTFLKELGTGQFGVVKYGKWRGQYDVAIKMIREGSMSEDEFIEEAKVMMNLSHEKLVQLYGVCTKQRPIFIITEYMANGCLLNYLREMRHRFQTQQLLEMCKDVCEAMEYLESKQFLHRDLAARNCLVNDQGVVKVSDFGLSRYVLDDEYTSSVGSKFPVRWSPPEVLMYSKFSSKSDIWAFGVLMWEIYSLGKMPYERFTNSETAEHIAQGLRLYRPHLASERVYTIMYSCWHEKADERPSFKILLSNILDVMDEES

In the case of `O=C1CCC(N2C(=O)c3cccc(NCC(=O)N4CCN(c5ccc(Nc6nccc(Oc7ccccc7)n6)cc5)CC4)c3C2=O)C(=O)N1` (stereo not shown) [PS-2, 2-(2,6-Dioxopiperidin-3-yl)-4-((2-oxo-2-(4-(4-((4-phenoxypyrimidin-2-yl)amino)phenyl)piperazin-1-yl)ethyl)amino)isoindoline-1,3-dione], at IKZF1, the DC50 turned out to be 0.028 µM. Also, the “CSK protein level change” value on CSK is recorded as “downregulated”. The IC50 in the data set with Mino cells amounted to 0.077 µM. In addition, the “degradation of IKZF3” value at IKZF3 is above 60%. Also, the half-life in data set [1] is around 20 min. On His-BTK, the “binding to BTK (result in words)” value is recorded as “almost no binding to BTK”. Besides, the “BTK degradation (result in words)” value at BTK is reported as “potent BTK degradation”.
